Data as given in article PMC6001238, “Iterative Chemical Engineering of Vancomycin Leads to Novel Vancomycin Analogs With a High in Vitro Therapeutic Index” (Frontiers in Microbiology, 2018).
Values after ≈ are worked out from the molar mass of the structure shown.

How the values were obtained:
[1] = test system: E. faecalis VRE 29; assay: MIC, broth microdilution, vancomycin-resistant E. faecalis VRE 29 (VanA); type: cell-based, Enterococcus faecalis; settings: for MIC: Enterococcus faecalis VRE 29 (vancomycin-resistant), read-out: MIC; for MIC-fold improvement vs. vancomycin: VRE 29, ratio of MIC of vancomycin and MIC of analogue
Outline: (§1)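 Serial dilutions in broth, set up per CLSI guidance, gave the MIC. Where noted, test analogues or comparator antibiotics were combined with vancomycin at 10 μM final. Controls: ultrapure water, broth without inoculum.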

[2] = test system: MRSA KS1; assay: MIC, broth microdilution, MRSA KS1; type: cell-based, Staphylococcus aureus; settings: for MIC-fold improvement vs. vancomycin: MRSA KS1, ratio of MIC of vancomycin and MIC of analogue; for MIC: Staphylococcus aureus MRSA KS1, read-out: MIC
Outline: as §1

[3] = test system: S. aureus VSSA (ATCC 6538); assay: MIC, broth microdilution, vancomycin-sensitive S. aureus (VSSA/MSSA, ATCC 6538); type: cell-based, Staphylococcus aureus; settings: for MIC: Staphylococcus aureus VSSA, read-out: MIC; for MIC-fold improvement vs. vancomycin: VSSA, ratio of MIC of vancomycin and MIC of analogue
Outline: as §1

[4] = test system: E. faecalis VSE 1; assay: MIC, broth microdilution, vancomycin-sensitive E. faecalis (VSE 1); type: cell-based, Enterococcus faecalis; settings: for MIC: Enterococcus faecalis VSE 1 (vancomycin-sensitive), read-out: MIC; for MIC-fold improvement vs. vancomycin: VSE 1, ratio of MIC of vancomycin and MIC of analogue
Outline: as §1

[5] = test system: human cervix carcinoma (HeLa) cells; assay: Cytostatic activity, HeLa cell proliferation; type: cell-based; settings: mean ± SD of three experiments; highest concentration tested 250 µM; 4 days; read-out: Toxicity (IC50) HeLa
Outline: (§2)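 Suspensions (300,000–500,000 cells/mL) combined with equal volumes of diluted compound; 37°C; L1210 2 d / CEM 3 d / HeLa 4 d; counted by Coulter counter; IC50 vs untreated wells.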

[6] = test system: Murine leukemia (L1210) cells; assay: Cytostatic activity, L1210 cell proliferation; type: cell-based; settings: mean ± SD of three experiments; highest concentration tested 250 µM; 2 days; read-out: Toxicity (IC50) L1210
Outline: as §2

[7] = test system: MRSA KS2; assay: MIC, broth microdilution, MRSA KS2; type: cell-based, Staphylococcus aureus; settings: for MIC-fold improvement vs. vancomycin: MRSA KS2, ratio of MIC of vancomycin and MIC of analogue; for MIC: Staphylococcus aureus MRSA KS2, read-out: MIC
Outline: as §1

[8] = test system: MRSA KS6; assay: MIC, broth microdilution, MRSA KS6; type: cell-based, Staphylococcus aureus; settings: for MIC-fold improvement vs. vancomycin: MRSA KS6, ratio of MIC of vancomycin and MIC of analogue; for MIC: Staphylococcus aureus MRSA KS6, read-out: MIC
Outline: as §1

[9] = test system: E. faecalis VRE 37; assay: MIC, broth microdilution, vancomycin-resistant E. faecalis VRE 37 (VanA); type: cell-based, Enterococcus faecalis; settings: for MIC: Enterococcus faecalis VRE 37 (vancomycin-resistant), read-out: MIC; for MIC-fold improvement vs. vancomycin: VRE 37, ratio of MIC of vancomycin and MIC of analogue
Outline: as §1

[10] = test system: S. aureus VRSA; assay: MIC, broth microdilution, vancomycin-resistant S. aureus (VRSA); type: cell-based, Staphylococcus aureus; settings: for MIC: Staphylococcus aureus VRSA, read-out: MIC; for MIC-fold improvement vs. vancomycin: VRSA, ratio of MIC of vancomycin and MIC of analogue
Outline: as §1

[11] = test system: L1210, CEM and HeLa cell lines; assay: Cytostatic activity, average or summary over L1210, CEM and HeLa; type: cell-based; settings: average of L1210, CEM and HeLa; read-out: Toxicity (IC50) Average
Outline: as §2

[12] = test system: S. aureus VISA/HIP5827; assay: MIC, broth microdilution, vancomycin-intermediate S. aureus VISA HIP5827; type: cell-based, Staphylococcus aureus; settings: for MIC: Staphylococcus aureus VISA/HIP5827, read-out: MIC; for MIC-fold improvement vs. vancomycin: VISA/HIP5827, ratio of MIC of vancomycin and MIC of analogue
Outline: as §1

[13] = test system: E. faecalis VRE 6; assay: MIC, broth microdilution, vancomycin-resistant E. faecalis VRE 6 (VanA); type: cell-based, Enterococcus faecalis; settings: for MIC: Enterococcus faecalis VRE 6 (vancomycin-resistant), read-out: MIC; for MIC-fold improvement vs. vancomycin: VRE 6, ratio of MIC of vancomycin and MIC of analogue
Outline: as §1

[14] = test system: MRSA KS89; assay: MIC, broth microdilution, MRSA KS89; type: cell-based, Staphylococcus aureus; settings: for MIC-fold improvement vs. vancomycin: MRSA KS8, ratio of MIC of vancomycin and MIC of analogue; for MIC: Staphylococcus aureus MRSA KS8, read-out: MIC
Outline: as §1

[15] = test system: human T-lymphocyte (CEM) cells; assay: Cytostatic activity, CEM cell proliferation; type: cell-based; settings: mean ± SD of three experiments; highest concentration tested 250 µM; 3 days; read-out: Toxicity (IC50) CEM
Outline: as §2

[16] = test system: E. faecalis VRE 53; assay: MIC, broth microdilution, vancomycin-resistant E. faecalis VRE 53 (VanA); type: cell-based, Enterococcus faecalis; settings: for MIC: Enterococcus faecalis VRE 53 (vancomycin-resistant), read-out: MIC; for MIC-fold improvement vs. vancomycin: VRE 53, ratio of MIC of vancomycin and MIC of analogue
Outline: as §1

Row | MIC [1] [µM] | MIC-fold improvement vs. vancomycin [2] | MIC [2] [µM] | MIC [3] [µM] | MIC-fold improvement vs. vancomycin [3] | MIC [4] [µM] | MIC-fold improvement vs. vancomycin [4] | MIC-fold improvement vs. vancomycin [7] | MIC [7] [µM] | MIC-fold improvement vs. vancomycin [8] | MIC [8] [µM] | MIC [9] [µM] | MIC-fold improvement vs. vancomycin [9] | MIC [10] [µM] | MIC-fold improvement vs. vancomycin [10] | MIC [12] [µM] | MIC-fold improvement vs. vancomycin [12] | Structure (SMILES) | IC50 [5] [µM] | IC50 [6] [µM] | IC50 [11] [µM] | other results
1 | 1.56 (≈ 2.65 µg/mL) | 8 | 0.10 (≈ 0.17 µg/mL) | 0.20 (≈ 0.34 µg/mL) | 4 | ≤0.05 | ≥32 | 4 | 0.20 (≈ 0.34 µg/mL) | 2 | 0.39 (≈ 0.663 µg/mL) | 3.13 (≈ 5.32 µg/mL) | 128 | 1.56 (≈ 2.65 µg/mL) | 64 | 0.78 (≈ 1.33 µg/mL) | 8 | CNC(CC(C)C)C(=O)NC1C(=O)NC(CC(N)=O)C(=O)NC2C(=O)NC3C(=O)NC(C(=O)NC(C(=O)NCC(=O)Nc4ccc(-c5ccc(C(C)=O)cc5)cc4)c4cc(O)cc(O)c4-c4cc3ccc4O)C(O)c3ccc(c(Cl)c3)Oc3cc2cc(c3OC2OC(CO)C(O)C(O)C2OC2CC(C)(N)C(O)C(C)O2)Oc2ccc(cc2Cl)C1O (centres unmarked) [Vanc-85] | 94 ± 12 | 31 ± 9 | 44 | MIC [13]: 0.78 µM (≈ 1.33 µg/mL); MIC-fold improvement vs. vancomycin [13]: 256; MIC-fold improvement vs. vancomycin [14]: 4; MIC [14]: 0.20 µM (≈ 0.34 µg/mL); IC50 [15]: 5.6 ± 0.6 µM; MIC [16]: 12.5 µM (≈ 21.2 µg/mL); MIC-fold improvement vs. vancomycin [16]: 32
2 | 3.13 (≈ 5.33 µg/mL) | 4 | 0.20 (≈ 0.34 µg/mL) | 0.39 (≈ 0.664 µg/mL) | 2 | ≤0.05 | ≥32 | 4 | 0.20 (≈ 0.34 µg/mL) | 2 | 0.39 (≈ 0.664 µg/mL) | 6.25 (≈ 10.6 µg/mL) | 64 | 1.56 (≈ 2.65 µg/mL) | 64 | 0.78 (≈ 1.33 µg/mL) | 8 | CCOc1ccc(-c2ccc(NC(=O)CNC(=O)C3NC(=O)C4NC(=O)C(NC(=O)C5NC(=O)C(CC(N)=O)NC(=O)C(NC(=O)C(CC(C)C)NC)C(O)c6ccc(c(Cl)c6)Oc6cc5cc(c6OC5OC(CO)C(O)C(O)C5OC5CC(C)(N)C(O)C(C)O5)Oc5ccc(cc5Cl)C4O)c4ccc(O)c(c4)-c4c(O)cc(O)cc43)cc2)cc1 (centres unmarked) [Vanc-86] | 9.8 ± 5.8 | 3 ± 2.3 | 5 | MIC-fold improvement vs. vancomycin [1]: 128; MIC [13]: 1.56 µM (≈ 2.65 µg/mL); MIC-fold improvement vs. vancomycin [13]: 128; MIC-fold improvement vs. vancomycin [14]: 2; MIC [14]: 0.39 µM (≈ 0.664 µg/mL); IC50 [15]: 1 ± 0.2 µM; MIC [16]: 12.5 µM (≈ 21.3 µg/mL); MIC-fold improvement vs. vancomycin [16]: 32
3 | 1.56 (≈ 2.63 µg/mL) | 8 | 0.10 (≈ 0.169 µg/mL) | 0.39 (≈ 0.657 µg/mL) | 2 | ≤0.05 | ≥32 | 8 | 0.10 (≈ 0.169 µg/mL) | 2 | 0.39 (≈ 0.657 µg/mL) | 3.13 (≈ 5.28 µg/mL) | 128 | 0.78 (≈ 1.31 µg/mL) | 128 | 0.39 (≈ 0.657 µg/mL) | 16 | CNC(CC(C)C)C(=O)NC1C(=O)NC(CC(N)=O)C(=O)NC2C(=O)NC3C(=O)NC(C(=O)NC(C(=O)NCC(=O)Nc4ccc(C(=O)c5ccccc5)cc4)c4cc(O)cc(O)c4-c4cc3ccc4O)C(O)c3ccc(c(Cl)c3)Oc3cc2cc(c3OC2OC(CO)C(O)C(O)C2OC2CC(C)(N)C(O)C(C)O2)Oc2ccc(cc2Cl)C1O (centres unmarked) [Vanc-88] | 98 ± 23 | 127 ± 32 | 86 | MIC-fold improvement vs. vancomycin [1]: 256; MIC [13]: 1.56 µM (≈ 2.63 µg/mL); MIC-fold improvement vs. vancomycin [13]: 128; MIC-fold improvement vs. vancomycin [14]: 4; MIC [14]: 0.20 µM (≈ 0.337 µg/mL); IC50 [15]: 32 ± 1 µM; MIC [16]: 12.5 µM (≈ 21.1 µg/mL); MIC-fold improvement vs. vancomycin [16]: 32
